In PubChem BioAssay AID256 (DTP/NCI, 2004):
Values joined by “and” are separate entries in the source; they are usually repeats but may differ in a detail not shown here. Equal entries are not always repeated. Inconclusive results and toxic doses are left out.

Tested on: CD2F1 mice, L1210 leukemia ip, survival T/C
Test: NCI In Vivo Anticancer Drug Screen. Data for tumor model L1210 Leukemia (intraperitoneal) in CD2F1 (CDF1) mice
Details: endpoint: mean survival time, higher = longer survival
How it was run: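 Read-out first: treated-group measurement over vehicle-control measurement, expressed as a ratio. Animals bore a transplanted tumor line and were dosed with compound or vehicle.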

[1] = dose: 25.0 mg/kg/injection, schedule: Q01DX009 (ip), vehicle: Klucel (hydroxypropylcellulose) (HPC)
[2] = dose: 50.0 mg/kg/injection, schedule: Q01DX009 (ip), vehicle: Klucel (hydroxypropylcellulose) (HPC)
[3] = dose: 100.0 mg/kg/injection, schedule: Q01DX009 (ip), vehicle: Klucel (hydroxypropylcellulose) (HPC)
[4] = dose: 200.0 mg/kg/injection, schedule: Q01DX009 (ip), vehicle: Klucel (hydroxypropylcellulose) (HPC)
[5] = dose: 200.0 mg/kg/injection, schedule: Q01DX001 (ip), vehicle: saline
[6] = dose: 200.0 mg/kg/injection, schedule: Q01DX009 (ip), vehicle: saline with Tween-80
[7] = dose: 400.0 mg/kg/injection, schedule: Q01DX001 (ip), vehicle: saline
[8] = dose: 100.0 mg/kg/injection, schedule: Q04DX003 (ip), vehicle: saline with Tween-80
[9] = dose: 200.0 mg/kg/injection, schedule: Q04DX003 (ip), vehicle: saline with Tween-80
[10] = dose: 400.0 mg/kg/injection, schedule: Q04DX003 (ip), vehicle: saline with Tween-80
[11] = dose: 100.0 mg/kg/injection, schedule: Q01DX009 (ip), vehicle: saline
[12] = dose: 200.0 mg/kg/injection, schedule: Q01DX009 (ip), vehicle: saline
[13] = dose: 400.0 mg/kg/injection, schedule: Q01DX009 (ip), vehicle: saline
[14] = dose: 100.0 mg/kg/injection, schedule: Q04DX003 (ip), vehicle: saline
[15] = dose: 100.0 mg/kg/injection, schedule: Q04DX002 (ip), vehicle: saline with Tween-80
[16] = dose: 200.0 mg/kg/injection, schedule: Q04DX002 (ip), vehicle: saline with Tween-80

## O=c1ccc2nc3ccccc3sc-2c1
[1]
  T/C: 106 % of control
[2]
  T/C: 103 % of control
dose: 50.0 mg/kg/injection, schedule: Q01DX009 (ip), vehicle: saline with Tween-80
  T/C: 97 % of control
[3]
  T/C: 108 % of control
[4]
  T/C: 98 % of control

## O=C(O)O
[5]
  T/C: 105 % of control
[6]
  T/C: 107 % of control
[7]
  T/C: 100 % of control

## COC1CCCCC1SCSC1CCCCC1OC (stereo not drawn)
[8]
  T/C: 91 % of control
[9]
  T/C: 87 % of control
[10]
  T/C: 89 % of control

## C[CH2][Pb]([CH2]C)([CH2]C)[O]C(=O)C=C1CCCC1
dose: 0.63 mg/kg/injection, schedule: Q01DX009 (ip), vehicle: saline
  T/C: 96 % of control
dose: 1.25 mg/kg/injection, schedule: Q01DX009 (ip), vehicle: saline
  T/C: 102 % of control
dose: 2.5 mg/kg/injection, schedule: Q01DX009 (ip), vehicle: saline
  T/C: 95 % of control
dose: 5.0 mg/kg/injection, schedule: Q04DX003 (ip), vehicle: saline with Tween-80
  T/C: 92 % of control
dose: 10.0 mg/kg/injection, schedule: Q04DX003 (ip), vehicle: saline with Tween-80
  T/C: 92 % of control

## CCN=C(N)SCCS(=O)(=O)O
dose: 100.0 mg/kg/injection, schedule: Q01DX005 (ip), vehicle: saline
  T/C: 103 % of control
[11]
  T/C: 97 % of control
dose: 200.0 mg/kg/injection, schedule: Q01DX005 (ip), vehicle: saline
  T/C: 106 % of control
[12]
  T/C: 97 % of control
dose: 400.0 mg/kg/injection, schedule: Q01DX005 (ip), vehicle: saline
  T/C: 95 % of control
[13]
  T/C: 97 % of control

## Cc1ccc([P+](=O)O)cc1Cl
[14]
  T/C: 102 % of control
dose: 200.0 mg/kg/injection, schedule: Q04DX003 (ip), vehicle: saline
  T/C: 97 % of control
dose: 400.0 mg/kg/injection, schedule: Q04DX003 (ip), vehicle: saline
  T/C: 103 % of control

## Oc1c(Cl)c(Cl)c(Cl)c(Cl)c1Cl (tested in a mixture with another compound)
dose: 25.0 mg/kg/injection, schedule: Q04DX003 (ip), vehicle: saline
  T/C: 96 % of control
dose: 50.0 mg/kg/injection, schedule: Q04DX003 (ip), vehicle: saline
  T/C: 103 % of control
[14]
  T/C: 96 % of control

## O=C1Nc2ccccc2C(=O)Nc2ccccc21
[3]
  T/C: 93 % of control
[4]
  T/C: 89 % of control

## S=C=Nc1ccccn1
[15]
  T/C: 86 % of control
[16]
  T/C: 101 % of control

## CCn1c(-c2cccc(N)c2)cc(=O)n1-c1ccccc1
[8]
  T/C: 98 % of control
[9]
  T/C: 96 % of control
[10]
  T/C: 90 % of control

## CCOC(=O)c1c[nH]c2cc(OC)ccc2c1=O
[8]
  T/C: 91 % of control
[9]
  T/C: 102 % of control
[10]
  T/C: 100 % of control

## O=C(CNC(=O)Nc1cccc(C(F)(F)F)c1)NNC(=O)Nc1ccc(Cl)c([N+](=O)[O-])c1
dose: 100.0 mg/kg/injection, schedule: Q01DX009 (ip), vehicle: saline with Tween-80
  T/C: 89 % of control
[6]
  T/C: 86 % of control

## O=C1OC(C(=O)O)Cc2ccccc21 (stereo not drawn)
dose: 50.0 mg/kg/injection, schedule: Q01DX001 (ip), vehicle: saline
  T/C: 102 % of control
dose: 100.0 mg/kg/injection, schedule: Q01DX001 (ip), vehicle: saline
  T/C: 100 % of control
[5]
  T/C: 110 % of control
[7]
  T/C: 103 % of control

## COc1ccc(CC2C(=O)NC(C)C(=O)N(C)C3C(=O)N(C)C(Cc4ccc(O)c(c4)Oc4ccc(cc4)C3O)C(=O)NC(C)C(=O)NC(C)C(=O)N2C)cc1 (stereo not drawn)
dose: 0.06 mg/kg/injection, schedule: Q01DX009 (ip), vehicle: saline
  T/C: 106 % of control
dose: 0.12 mg/kg/injection, schedule: Q01DX009 (ip), vehicle: saline
  T/C: 113 % of control and 102 % of control and 104 % of control
dose: 0.25 mg/kg/injection, schedule: Q01DX009 (ip), vehicle: Klucel (hydroxypropylcellulose) (HPC)
  T/C: 113 % of control and 110 % of control
dose: 0.25 mg/kg/injection, schedule: Q01DX009 (ip), vehicle: saline
  T/C: 114 % of control and 97 % of control and 108 % of control
dose: 0.5 mg/kg/injection, schedule: Q01DX009 (ip), vehicle: Klucel (hydroxypropylcellulose) (HPC)
  T/C: 113 % of control and 103 % of control
dose: 0.5 mg/kg/injection, schedule: Q01DX009 (ip), vehicle: saline
  T/C: 104 % of control and 109 % of control
dose: 1.0 mg/kg/injection, schedule: Q01DX009 (ip), vehicle: Klucel (hydroxypropylcellulose) (HPC)
  T/C: 113 % of control and 110 % of control
dose: 1.0 mg/kg/injection, schedule: Q01DX009 (ip), vehicle: saline
  T/C: 113 % of control and 114 % of control and 110 % of control
dose: 2.0 mg/kg/injection, schedule: Q01DX009 (ip), vehicle: Klucel (hydroxypropylcellulose) (HPC)
  T/C: 113 % of control and 111 % of control
dose: 2.0 mg/kg/injection, schedule: Q01DX009 (ip), vehicle: saline
  T/C: 116 % of control and 123 % of control
dose: 4.0 mg/kg/injection, schedule: Q01DX009 (ip), vehicle: Klucel (hydroxypropylcellulose) (HPC)
  T/C: 119 % of control
dose: 4.0 mg/kg/injection, schedule: Q01DX009 (ip), vehicle: saline
  T/C: 88 % of control and 96 % of control

## O=C(O)C1(C(=O)O)CC2CC=CCC2C1 (stereo not drawn)
[11]
  T/C: 98 % of control
[12]
  T/C: 100 % of control
[13]
  T/C: 87 % of control

## O=C1c2cc([N+](=O)[O-])ccc2-c2ccc([N+](=O)[O-])cc21
dose: 12.5 mg/kg/injection, schedule: Q01DX009 (ip), vehicle: Klucel (hydroxypropylcellulose) (HPC)
  T/C: 98 % of control
[1]
  T/C: 95 % of control
[2]
  T/C: 102 % of control

## COc1ccc(C(=O)c2ncccc2C(=O)O)cc1OC
dose: 12.5 mg/kg/injection, schedule: Q01DX009 (ip), vehicle: other
  T/C: 98 % of control
dose: 25.0 mg/kg/injection, schedule: Q01DX009 (ip), vehicle: other
  T/C: 104 % of control
dose: 50.0 mg/kg/injection, schedule: Q01DX009 (ip), vehicle: other
  T/C: 104 % of control
dose: 100.0 mg/kg/injection, schedule: Q01DX009 (ip), vehicle: other
  T/C: 104 % of control
dose: 200.0 mg/kg/injection, schedule: Q01DX009 (ip), vehicle: other
  T/C: 105 % of control

## CCCCCCCCCCCCC[n+]1ccc(C#N)cc1
dose: 7.5 mg/kg/injection, schedule: Q01DX001 (ip), vehicle: saline
  T/C: 102 % of control
dose: 7.5 mg/kg/injection, schedule: Q01DX009 (ip), vehicle: saline
  T/C: 107 % of control
dose: 15.0 mg/kg/injection, schedule: Q01DX001 (ip), vehicle: saline
  T/C: 94 % of control
dose: 15.0 mg/kg/injection, schedule: Q01DX009 (ip), vehicle: saline
  T/C: 101 % of control
dose: 30.0 mg/kg/injection, schedule: Q01DX001 (ip), vehicle: saline
  T/C: 97 % of control

## c1nc(SSc2ncnc3nc[nH]c23)c2[nH]cnc2n1
dose: 12.5 mg/kg/injection, schedule: Q01DX009 (ip), vehicle: saline with Tween-80
  T/C: 186 % of control
dose: 25.0 mg/kg/injection, schedule: Q01DX009 (ip), vehicle: saline with Tween-80
  T/C: 151 % of control
dose: 30.0 mg/kg/injection, schedule: Q01DX001 (ip), vehicle: saline with Tween-80
  T/C: 150 % of control
dose: 66.0 mg/kg/injection, schedule: Q01DX001 (ip), vehicle: saline with Tween-80
  T/C: 157 % of control
dose: 100.0 mg/kg/injection, schedule: Q01DX001 (ip), vehicle: saline with Tween-80
  T/C: 155 % of control
dose: 150.0 mg/kg/injection, schedule: Q01DX001 (ip), vehicle: saline with Tween-80
  T/C: 162 % of control

## CC(C)N1CC(COc2cccc3ccccc23)OP1(=O)N(CCCl)CCCl (stereo not drawn)
dose: 31.25 mg/kg/injection, schedule: Q01DX001 (ip), vehicle: distilled water + Tween-80
  T/C: 101 % of control
dose: 62.5 mg/kg/injection, schedule: Q01DX001 (ip), vehicle: distilled water + Tween-80
  T/C: 101 % of control
dose: 125.0 mg/kg/injection, schedule: Q01DX001 (ip), vehicle: distilled water + Tween-80
  T/C: 95 % of control and 98 % of control and 101 % of control
dose: 250.0 mg/kg/injection, schedule: Q01DX001 (ip), vehicle: distilled water + Tween-80
  T/C: 93 % of control and 103 % of control and 111 % of control
dose: 500.0 mg/kg/injection, schedule: Q01DX001 (ip), vehicle: distilled water + Tween-80
  T/C: 90 % of control and 110 % of control
dose: 1000.0 mg/kg/injection, schedule: Q01DX001 (ip), vehicle: distilled water + Tween-80
  T/C: 113 % of control and 93 % of control

## c1ccc(N(c2ccccn2)c2ccccn2)nc1
dose: 25.0 mg/kg/injection, schedule: Q04DX002 (ip), vehicle: saline with Tween-80
  T/C: 101 % of control
dose: 50.0 mg/kg/injection, schedule: Q04DX002 (ip), vehicle: saline with Tween-80
  T/C: 101 % of control
[15]
  T/C: 97 % of control
[16]
  T/C: 97 % of control
